Test results published in US7842671B1, “Peptidomimetic inhibitors of STAT activity and uses thereof” (University of South Florida, priority 2003, dated 2010).

How the values were obtained:
[1] = tested on: MDA-MB-435; format: cell-based, human; details: 1 mM, MDA-MB-435, four days
Description: (§1) Cell proliferation, soft-agar growth and Apo-BrdU labeling studies. Proliferating fibroblasts and human tumor cells were counted by phase-contrast microscopy for viable cells (using tyrpan blue exclusion). Colony formation assays in six-well dishes and quantification of colonies by iodonitrotetrazolium violet have been previously described (Turkson, J. et al. (1999)). Treatment of cells with inhibitors was initiated 1 day after seeding cells by adding 75 μl of medium with or without inhibitor, and repeated every two to three days. Apoptosis was measured by Apo-BrdU labeling and following the supplier's (PharMingen; San Diego, Calif.) instructions.
(§2) Stat3 has an essential role in cell proliferation, and constitutively-active Stat3 is required for growth of transformed and tumor cells that harbor aberrant Stat3 signaling. Studies were performed to determine the effects of the peptidomimetic-mediated inhibition of Stat3 on cell proliferation using trypan blue exclusion for viable cell counts.

[2] = tested on: MDA-MB-231; format: cell-based, human; details: 1 mM, MDA-MB-231, four days
Description: as §1, §2

[3] = tested on: MDA-MB-453; format: cell-based, human; details: 1 mM
Description: as §1, §2

[4] = tested on: NIH3T3/v-Ras; assay: Soft-agar growth of v-Ras-transformed fibroblasts; format: cell-based, mouse; details: 1 mM every 2-3 days
Description: as §1
Previous studies with PY*LKTK-MTS (SEQ ID NO. 1) (Turkson, J. et al., 2001)) confirmed that inhibition of constitutive Stat3 activation blocks Src transformation (Turkson, J. et al. (1998); Turkson, J. et al., (1999); Bromberg, J. R. et al. (1998)).

[5] = target: T1, Stat3 (Mus musculus, UniProt P42227); format: cell-based; parameters: nuclear extracts (prepared from epidermal growth factor (EGF)-stimulated fibroblasts); endogenous in cells; host or cells: NIH3T3 fibroblasts stimulated with EGF
T1 sequence (P42227 whole entry): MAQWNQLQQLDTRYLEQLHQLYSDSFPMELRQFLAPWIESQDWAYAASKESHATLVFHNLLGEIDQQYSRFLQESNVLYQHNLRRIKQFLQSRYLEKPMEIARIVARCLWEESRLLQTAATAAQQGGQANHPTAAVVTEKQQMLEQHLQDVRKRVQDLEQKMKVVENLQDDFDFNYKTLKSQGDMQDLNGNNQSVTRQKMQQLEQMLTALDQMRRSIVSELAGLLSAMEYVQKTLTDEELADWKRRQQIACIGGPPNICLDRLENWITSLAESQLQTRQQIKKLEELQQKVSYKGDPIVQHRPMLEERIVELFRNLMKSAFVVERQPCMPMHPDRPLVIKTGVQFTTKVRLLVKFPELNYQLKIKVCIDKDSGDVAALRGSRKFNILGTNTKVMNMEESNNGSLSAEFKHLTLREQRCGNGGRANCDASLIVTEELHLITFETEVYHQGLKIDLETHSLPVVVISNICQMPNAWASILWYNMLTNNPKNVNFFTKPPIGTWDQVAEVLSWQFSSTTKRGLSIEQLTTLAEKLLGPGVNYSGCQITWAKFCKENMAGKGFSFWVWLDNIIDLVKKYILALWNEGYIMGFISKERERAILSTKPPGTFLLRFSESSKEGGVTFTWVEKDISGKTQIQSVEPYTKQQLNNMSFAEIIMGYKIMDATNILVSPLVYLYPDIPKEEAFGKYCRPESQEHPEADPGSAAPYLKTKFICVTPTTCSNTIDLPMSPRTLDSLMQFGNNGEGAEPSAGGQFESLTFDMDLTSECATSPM

[6] = target: T1, Stat3; assay: EMSA of Stat3 DNA-binding activity in nuclear extracts (hSIE probe); format: biochemical; parameters: nuclear extracts (prepared from epidermal growth factor (EGF)-stimulated fibroblasts); endogenous in cells; host or cells: NIH3T3 fibroblasts stimulated with EGF; details: EMSA
Description: Nuclear extract preparation and gel shift assays. Nuclear extracts were prepared from cell lines and used for electrophoretic mobility shift assay (EMSA) as previously described (Garcia, R. et al. (1997); Yu, C. L. et al. (1995); Turkson, J. et al. (1998)). In some cases, cells were pre-treated with peptidomimetics for the indicated times (12-48 h) prior to harvesting for nuclear extract preparation. In other studies, nuclear extracts were pre-incubated with peptidomimetics for 30 min at room temperature prior to incubation with radiolabeled probe. The ^32P-radiolabeled oligonucleotide probes used are hSIE (high affinity sis-inducible element, m67 variant, 5′-[…]-3′) (SEQ ID NO. 3) that binds both Stat1 and Stat3 (Garcia, R. et al. (1997); Wagner B. J. et al. (1990)) and MGFe (mammary gland factor element from the bovine β-casein gene promoter, 5′-[…]-3′) (SEQ ID NO. 4) that binds Stat1 and Stat5 (Gouilleux, F. et al. (1995); Seidel, H. M. et al. (1995)).
Peptidomimetics of the invention can be prepared by replacing prolyl or alanyl residue at the peptide bond that is N-terminal to the phosphotyrosine (Y*) of a peptide such as PY*L or AY*L with an organic substituent such as an optionally substituted aryl or heteroaryl group. The activities of STATs were measured in nuclear extracts (prepared from epidermal growth factor (EGF)-stimulated fibroblasts) as DNA-bound protein complexes by electrophoretic mobility shift assay (EMSA).
From densitometric analysis of band intensities, the IC50 values (concentration of peptidomimetic at which DNA-binding activity is reduced by 50%), which are reported in Table 3, were determined.

[7] = tested on: NIH3T3; assay: Apo-BrdU labeling and flow cytometry for apoptotic cells; format: cell-based, mouse; details: NIH3T3, 1 mM, 48 h, flow cytometry
Description: as §1
(§3) Because one of the functions of Stat3 is to protect transformed or tumor cells from apoptosis (Catlett-Falcone, R. et al. (1999b); Epling-Burnette, P. K. et al. (2001); Grandis, J. R. et al. (2000); Bowman, T. et al. (2000b); Bromberg, J. F. et al. (1999)), the ability of peptidomimetics of the invention (and PY*LKTK-MTS for comparison) (SEQ ID NO. 1) to induce apoptosis in Stat3-dependent transformed fibroblasts was evaluated. Viral Src-transformed NIH3T3/v-Src fibroblasts were treated with or without compounds for 48 h. Treated cells were then labeled with Apo-BrdU (PharMingen; San Diego, Calif.) for detection of DNA breaks.

[8] = tested on: NIH3T3/v-Src; assay: as above; format: cell-based, mouse; details: 48 h
Description: as §1, §3

SMILES: CC(C)CC(NC(=O)C(Cc1ccc(OP(=O)(O)O)cc1)NC(=O)c1ccc(C#N)cc1)C(=O)O (stereo not shown) [ISS 610]
- cell proliferation [1]: significantly suppresses proliferation
- cell proliferation [2]: significantly suppresses proliferation
- cell proliferation [3]: no effect on cell proliferation
- soft-agar growth [4]: no effect
- ligand (EGF)-induced STAT activation [5]: preferential inhibition of activation of Stat3
- increase in potency in inhibiting Stat3 DNA-binding activity compared to tripeptides PY*L or AY*L ([6]; in vitro): 5 fold
- effect on Stat3 DNA-binding activity in vitro (in words) ([6]; nuclear extracts): potent disrupters of active Stat3
- percent of apoptotic cells [7]: 0.3%
- percent of apoptotic cells ([8]; NIH3T3/v-Src, 1 mM, Apo-BrdU, flow cytometry): 21.4%
- incorporated BrdUTP compared to controls (in words) ([8]; Src-transformed fibroblasts): dramatic increases in incorporated BrdUTP
